The target in this assay is PD-1/PD-L1 (Homo sapiens (Human), UniProt Q9NZQ7). In words: PD-1/PD-L1 biochemical protein-protein interaction assay (ALPHA). The conditions noted are these: 0.3 nM His tagged PD-L1, 2.5 nM biotinylated Fc-PD-1, 60 minutes at 25° C., read-out: IC50 PD-L1-PD1.

Structures are written as SMILES.

Here are results for 51 compounds from patent US10710986B2, “PD-1/PD-L1 inhibitors” (Gilead Sciences, Inc., priority 2018, dated 2020).

PD-1/PD-L1, sequence (Q9NZQ7 19-238): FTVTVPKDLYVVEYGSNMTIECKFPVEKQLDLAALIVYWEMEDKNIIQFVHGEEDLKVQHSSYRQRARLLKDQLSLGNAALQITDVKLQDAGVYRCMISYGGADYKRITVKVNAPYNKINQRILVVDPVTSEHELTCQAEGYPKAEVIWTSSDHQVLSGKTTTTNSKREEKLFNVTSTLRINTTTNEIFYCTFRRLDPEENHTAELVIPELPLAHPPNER

Consider `COc1nc(-c2cccc(-c3cccc(-c4cnc(CN(CCO)CC(F)(F)F)c(OC)n4)c3Cl)c2Cl)cnc1CNC[C@@H]1CCC(=O)N1` [compound 258], for which the IC50 was found to be 0.673 nM.

`COc1nc(-c2cccc(-c3cccc(-c4cnc(CN5CCN[C@H](C6CC6)C5)c(OC)n4)c3Cl)c2Cl)cnc1CNC[C@@H]1CCC(=O)N1` [compound 259]: the IC50 was determined as 0.273 nM.

With `COc1nc(-c2cccc(-c3cccc(-c4cnc(CN5CC[C@@H](OC)[C@@H](F)C5)c(OC)n4)c3Cl)c2Cl)cnc1CNC[C@@H]1CCC(=O)N1` [compound 260], the IC50 was found to be 0.295 nM.

Turning to `COc1nc(-c2cccc(-c3cccc(-c4cnc(CN5CCCC(F)(CO)C5)c(OC)n4)c3Cl)c2Cl)cnc1CNC[C@@H]1CCC(=O)N1` (stereo partly drawn) [compound 261], the 50% inhibitory concentration (IC50) came out at 0.128 nM.

As to `COc1nc(-c2cccc(-c3cccc(-c4cnc(CNC[C@@H]5CC(C)C(=O)N5)c(OC)n4)c3Cl)c2Cl)cnc1CNC[C@@H]1CCC(=O)N1` (stereo partly drawn) [compound 262], the IC50 came to 0.465 nM.

In the case of `COc1nc(-c2cccc(-c3cccc(-c4cnc(CN5C[C@@H](O)C[C@@H](F)C5)c(OC)n4)c3Cl)c2Cl)cnc1CNC[C@@H]1CCC(=O)N1` [compound 263], the IC50 is 0.379 nM.

As to `COc1nc(-c2cccc(-c3cccc(-c4cnc(CN5C[C@H](O)C[C@@H](F)C5)c(OC)n4)c3Cl)c2Cl)cnc1CNC[C@@H]1CCC(=O)N1` [compound 264], the IC50 came to 0.407 nM.

As for `COc1nc(-c2cccc(-c3cccc(-c4cnc(CN5C[C@H](O)[C@@H](F)C5)c(OC)n4)c3Cl)c2Cl)cnc1CNC[C@@H]1CCC(=O)N1` [compound 265], the half-maximal inhibitory concentration (IC50) is 0.225 nM.

Turning to `COc1nc(-c2cccc(-c3cccc(-c4cnc(CN5C[C@H](O)[C@@H](C#N)C5)c(OC)n4)c3Cl)c2Cl)cnc1CNC[C@@H]1CCC(=O)N1` [compound 266], the IC50 amounted to 0.243 nM.

As for `COc1nc(-c2cccc(-c3cccc(-c4cnc(CNC5CCC(F)(F)C5)c(OC)n4)c3Cl)c2Cl)cnc1CNC[C@@H]1CCC(=O)N1` (stereo partly drawn) [compound 267], the IC50 was determined as 0.606 nM.

For the compound `COc1nc(-c2cccc(-c3cccc(-c4cnc(CN[C@H]5C[C@H]5CO)c(OC)n4)c3Cl)c2Cl)cnc1CNC[C@@H]1CCC(=O)N1` [compound 268], the 50% inhibitory concentration (IC50) came to 0.352 nM.

Turning to `COc1nc(-c2cccc(-c3cccc(-c4cnc(CN5CCN(C6CC6)CC5)c(OC)n4)c3Cl)c2Cl)cnc1CNC[C@@H]1CCC(=O)N1` [compound 269], the 50% inhibitory concentration (IC50) is 0.23 nM.

Consider `COc1nc(-c2cccc(-c3cccc(-c4cnc(CN5CCC[C@@H](F)C5)c(OC)n4)c3Cl)c2Cl)cnc1CNC[C@@H]1CCC(=O)N1` [compound 270], for which the IC50 was 0.378 nM.

Turning to `COc1nc(-c2cccc(-c3cccc(-c4cnc(CN5CCCC(F)(F)C5)c(OC)n4)c3Cl)c2Cl)cnc1CNC[C@@H]1CCC(=O)N1` [compound 271], the IC50 was determined as 1.7 nM.

Turning to `COc1nc(-c2cccc(-c3cccc(-c4cnc(CN5CCCC(C(F)F)C5)c(OC)n4)c3Cl)c2Cl)cnc1CNC[C@@H]1CCC(=O)N1` (stereo partly drawn) [compound 272], the IC50 was found to be 2.43 nM.

Turning to `COc1nc(-c2cccc(-c3cccc(-c4cnc(CNC5CC6CC6C5)c(OC)n4)c3Cl)c2Cl)cnc1CNC[C@@H]1CCC(=O)N1` (stereo partly drawn) [compound 273], the IC50 turned out to be 0.265 nM.

In the case of `COc1nc(-c2cccc(-c3cccc(-c4cnc(CN[C@H]5C[C@@](C)(O)C5)c(OC)n4)c3Cl)c2Cl)cnc1CNC[C@@H]1CCC(=O)N1` [compound 274], the IC50 stood at 0.117 nM.

Turning to `COc1nc(-c2cccc(-c3cccc(-c4cnc(CNC[C@H]5C[C@H](O)C5)c(OC)n4)c3Cl)c2Cl)cnc1CNC[C@@H]1CCC(=O)N1` [compound 275], the IC50 stood at 0.064 nM.

`COc1nc(-c2cccc(-c3cccc(-c4cnc(CN[C@@H]5C[C@H]5CO)c(OC)n4)c3Cl)c2Cl)cnc1CNC[C@@H]1CCC(=O)N1` [compound 276]: the IC50 was 0.27 nM.

Turning to `COc1nc(-c2cccc(-c3cccc(-c4cnc(CN5CC[C@H](O)[C@@H](F)C5)c(OC)n4)c3Cl)c2Cl)cnc1CNC[C@@H]1CCC(=O)N1` [compound 277], the IC50 amounted to 0.652 nM.

Turning to `COc1nc(-c2cccc(-c3cccc(-c4cnc(CN5CC[C@@H](O)[C@@H](F)C5)c(OC)n4)c3Cl)c2Cl)cnc1CNC[C@@H]1CCC(=O)N1` [compound 278], the IC50 was 0.538 nM.

With `COc1nc(-c2cccc(-c3cccc(-c4cnc(CN5CC[C@@H](O)[C@H](F)C5)c(OC)n4)c3Cl)c2Cl)cnc1CNC[C@@H]1CCC(=O)N1` [compound 279], the IC50 is 0.343 nM.

`COc1nc(-c2cccc(-c3cccc(-c4cnc(CN5CC[C@H](O)[C@H](F)C5)c(OC)n4)c3Cl)c2Cl)cnc1CNC[C@@H]1CCC(=O)N1` [compound 280]: the IC50 is 0.18 nM.

Take `COc1nc(-c2cccc(-c3cccc(-c4cnc(CNC[C@@H]5CCC(=O)N5)c(OC)n4)c3Cl)c2Cl)cnc1CNCC1COC(=O)N1` (stereo partly drawn) [compound 281]: the half-inhibitory concentration (IC50) is 1.19 nM.

On to `COc1nc(-c2cccc(-c3cccc(-c4cnc(CN5CCC(F)(F)CC5)c(OC)n4)c3Cl)c2Cl)cnc1CNC[C@@H]1CCC(=O)N1` [compound 282], for which the concentration for half-maximal inhibition (IC50) stood at 1.57 nM.

`COc1nc(-c2cccc(-c3cccc(-c4cnc(CNC5CC(F)C5)c(OC)n4)c3Cl)c2Cl)cnc1CNC[C@@H]1CCC(=O)N1` (stereo partly drawn) [compound 283]: the IC50 is 0.711 nM.

In the case of `COc1nc(-c2cccc(-c3cccc(-c4cnc(CNC5CC(F)(F)C5)c(OC)n4)c3Cl)c2Cl)cnc1CNC[C@@H]1CCC(=O)N1` [compound 284], the IC50 amounted to 0.816 nM.

As to `COc1nc(-c2cccc(-c3cccc(-c4cnc(CN5CCCC(NC(C)=O)C5)c(OC)n4)c3Cl)c2Cl)cnc1CNC[C@H]1CCC(=O)N1` (stereo partly drawn) [compound 285], the IC50 came out at 0.358 nM.

Take `COc1nc(-c2cccc(-c3cccc(-c4cnc(CNCC5(O)CCS(=O)(=O)C5)c(OC)n4)c3Cl)c2Cl)cnc1CNC[C@@H]1CCC(=O)N1` (stereo partly drawn) [compound 286]: the IC50 came out at 0.06 nM.

With `COc1nc(-c2cccc(-c3cccc(-c4cnc(CN5CC[C@H]6CNC(=O)[C@H]65)c(OC)n4)c3Cl)c2Cl)cnc1CNC[C@@H]1CCC(=O)N1` [compound 287], the half-inhibitory concentration (IC50) came out at 0.34 nM.

As for `CNC(=O)CNCc1ncc(-c2cccc(-c3cccc(-c4cnc(CNC[C@@H]5CCC(=O)N5)c(OC)n4)c3Cl)c2Cl)nc1OC` [compound 288], the IC50 is 0.26 nM.

As for `COc1nc(-c2cccc(-c3cccc(-c4cnc(CN5CC6(CC(O)C6)C5)c(OC)n4)c3Cl)c2Cl)cnc1CNC[C@@H]1CCC(=O)N1` [compound 289], the IC50 was 0.06 nM.

With `COc1nc(-c2cccc(-c3cccc(-c4cnc(CN5CCC6(CC5)NC(=O)NC6=O)c(OC)n4)c3Cl)c2Cl)cnc1CNC[C@@H]1CCC(=O)N1` [compound 290], the IC50 was 0.259 nM.

For the compound `COc1nc(-c2cccc(-c3cccc(-c4cnc(CN5CCCC6(C5)NC(C)=NC6=O)c(OC)n4)c3Cl)c2Cl)cnc1CNC[C@@H]1CCC(=O)N1` (stereo partly drawn) [compound 291], the IC50 was 0.216 nM.

Take `COc1nc(-c2cccc(-c3cccc(-c4cnc(CN5CCC6(C5)NC(=O)NC6=O)c(OC)n4)c3Cl)c2Cl)cnc1CNC[C@@H]1CCC(=O)N1` (stereo partly drawn) [compound 292]: the IC50 is 0.229 nM.

As to `COc1nc(-c2cccc(-c3cccc(-c4cnc(CN5CCCC6(C5)NC(=O)NC6=O)c(OC)n4)c3Cl)c2Cl)cnc1CNC[C@@H]1CCC(=O)N1` (stereo partly drawn) [compound 293], the IC50 was found to be 0.516 nM.

On to `COc1nc(-c2cccc(-c3cccc(-c4cnc(CN5CCC6(C5)NC(=O)N(C)C6=O)c(OC)n4)c3Cl)c2Cl)cnc1CNC[C@@H]1CCC(=O)N1` (stereo partly drawn) [compound 294], for which the IC50 was found to be 0.298 nM.

As to `COc1nc(-c2cccc(-c3cccc(-c4cnc(CN[C@@H]5CCO[C@@H]5C)c(OC)n4)c3Cl)c2Cl)cnc1CNC[C@@H]1CCC(=O)N1` [compound 295], the half-inhibitory concentration (IC50) stood at 0.414 nM.

Take `COc1nc(-c2cccc(-c3cccc(-c4cnc(CNC[C@@H]5CCC(=O)N5)c(OC)n4)c3Cl)c2Cl)cnc1CNC[C@H]1CCOC1` [compound 296]: the IC50 amounted to 0.222 nM.

With `COc1nc(-c2cccc(-c3cccc(-c4cnc(CN(C)[C@H]5CCOC5)c(OC)n4)c3Cl)c2Cl)cnc1CNC[C@@H]1CCC(=O)N1` [compound 297], the IC50 came out at 0.254 nM.

For `COc1nc(-c2cccc(-c3cccc(-c4cnc(CN5CCC6(CC(CO)C6)C5)c(OC)n4)c3Cl)c2Cl)cnc1CNC[C@@H]1CCC(=O)N1` (stereo partly drawn) [compound 298], the 50% inhibitory concentration (IC50) was determined as 0.181 nM.

Take `COc1nc(-c2cccc(-c3cccc(-c4cnc(CN5CC[C@@H](CO)[C@@H](O)C5)c(OC)n4)c3Cl)c2Cl)cnc1CNC[C@@H]1CCC(=O)N1` [compound 300]: the IC50 is 0.299 nM.

Consider `COc1nc(-c2cccc(-c3cccc(-c4cnc(CN5CC6(CCS6(=O)=O)C5)c(OC)n4)c3Cl)c2Cl)cnc1CNC[C@@H]1CCC(=O)N1` [compound 301], for which the IC50 came to 0.25 nM.

On to `COc1nc(-c2cccc(-c3cccc(-c4cnc(CNC[C@@H]5CCC(=O)N5)c(OC)n4)c3Cl)c2Cl)cnc1CNCC(N)=O` [compound 302], for which the IC50 was 0.089 nM.

In the case of `COc1nc(-c2cccc(-c3cccc(-c4cnc(CNC[C@@H]5CCC(=O)N5C)c(OC)n4)c3Cl)c2Cl)cnc1CNC[C@@H]1CCC(=O)N1` [compound 303], the half-maximal inhibitory concentration (IC50) came to 0.256 nM.

Consider `COc1nc(-c2cccc(-c3cccc(-c4cnc(CN[C@@H](CO)C(N)=O)c(OC)n4)c3Cl)c2Cl)cnc1CNC[C@@H]1CCC(=O)N1` [compound 304], for which the IC50 came out at 0.29 nM.

Consider `COc1nc(-c2cccc(-c3cccc(-c4cnc(CNC[C@@H]5CCC(=O)N5)c(OC)n4)c3Cl)c2Cl)cnc1CNCc1cccn(C)c1=O` [compound 305], for which the IC50 was found to be 0.244 nM.

With `COc1nc(-c2cccc(-c3cccc(-c4cnc(CNC[C@@H]5CCC(=O)N5)c(OC)n4)c3Cl)c2Cl)cnc1CNCC1CCS(=O)(=O)N1` (stereo partly drawn) [compound 306], the IC50 is 0.245 nM.

Turning to `COc1nc(-c2cccc(-c3cccc(-c4cnc(CN5CC6(C5)CC(C)(O)C6)c(OC)n4)c3Cl)c2Cl)cnc1CNC[C@@H]1CCC(=O)N1` [compound 307], the IC50 is 0.167 nM.

As for `COc1nc(-c2cccc(-c3cccc(-c4cnc(CN5CC6(C5)CC(O)(C(F)(F)F)C6)c(OC)n4)c3Cl)c2Cl)cnc1CNC[C@@H]1CCC(=O)N1` [compound 308], the IC50 came out at 0.337 nM.

Consider `COC[C@H]1CCN1Cc1ncc(-c2cccc(-c3cccc(-c4cnc(CNC[C@@H]5CCC(=O)N5)c(OC)n4)c3Cl)c2Cl)nc1OC` [compound 309], for which the IC50 was 0.178 nM.

The IC50 is the midpoint of a concentration-inhibition curve.
